Measured values from ChEMBL document CHEMBL3739268, “Structure activity relationships of 4-hydroxy-2-pyridones: A novel class of antituberculosis agents” (Eur J Med Chem, 2015).
≈ marks a conversion by molar mass, not a printed value.

Tested on: Mycobacterium tuberculosis
Test: Antituberculosis activity against multi-drug resistant Mycobacterium tuberculosis
Format: functional

| Structure (SMILES) | MIC [µM] |
| --- | --- |
| CC(C)Cc1cc(O)c(-c2ccccc2)c(=O)[nH]1 | 2.5 (≈ 0.608 µg/mL) |
| CC1(C)CCC(Cc2cc(O)c(-c3ccccc3)c(=O)[nH]2)CC1 | 0.04 (≈ 0.0125 µg/mL) |
